Measured values: patent US4731486A, “Hydroformylation using low volatile phosphine ligands” (Union Carbide Corporation, priority 1986, dated 1988)
Where a name gives a salt, the structure may show the parent alone.

Tests used:
[1] = Continuous hydroformylation of propylene (Example 8); details: Texanol/PEG-600 8:1
[2] = Solubility of metal salt ligands in nonanal with added solubilizing agent; type: physicochemical; details: 25° C.; nonanal with 1:4 CARBOWAX TPEG-900/TERGITOL NP-9
[3] = Batch hydroformylation of propylene in stirred autoclave (Examples 1, 2, 11, 14, 19); details: 200 ppm Rh, about 120 mole equivalents ligand, 100° C., 90 psia 1:1:1 H2:CO:C3H6; for Linear/Branched Aldehyde Mole Ratio: Texanol/Carbowax PEG-600: Li 100:0, K 9:1, Rb 8:1, Ca 20:1, Ba 7:1; for Reaction Rate (C4 aldehydes): Texanol/Carbowax PEG-600: Li 100:0, K 9:1, Rb 8:1, Cs 7:1, Ca 20:1, Ba 7:1, Sr 18:1
Experimental: A series of various rhodium complex catalyst precursor solutions consisting essentially of the solubilized reaction product of rhodium dicarbonyl acetylacetonate and various monosulfonated triphenylphosphine metal salt ligands were prepared and employed to hydroformylate propylene into C4 aldehydes in the following manner.
Each rhodium catalytic precursor solution so prepared was then employed to hydroformylate propylene in a magnetically stirred, 100 mL capacity, stainless steel autoclave which was attached to a gas manifold for introducing gases to the desired partial pressures. The autoclave was also equipped with a pressure calibrator for determining reaction pressure to ±0.01 psia. and a platinum resistance thermometer for determining reactor solution temperatures to ±0.10° C. The reactor was heated externally by two 300 watt heating bands. The reactor solution temperature was controlled by a platinum resistance sensor connected to an external proportional temperature controller for controlling the temperature of the external band heaters.
In each non-aqueous hydroformylation reaction, about 15 milliliters (about 14 grams) of the rhodium catalytic precursor solution so prepared was charged to the autoclave reactor under nitrogen and heated to the reaction temperature employed (as given in Table 1 below). The reactor was then vented down to 5 psig. and a premixed gas mixture of 1:1:1 carbon monoxide:hydrogen:propylene was introduced into the reactor via the gas manifold (partial pressures given in Table 1) and the propylene so hydroformylated.
A comparison of the catalytic activity of aqueous and non-aqueous solutions of monosulfonated triphenylphosphine sodium salt ligand promoted catalysts in hydroformylating various molecular weight alphe-olefins was determined as follows.
Both the aqueous and non-aqueous hydroformylation reactions were conducted under identical conditions with regard to temperature, rhodium and ligand concentration, hydrogen and carbon monoxide partial pressure and olefin concentration.

[4] = Solubility of metal salt ligands in different aldehydes; type: physicochemical
[5] = Continuous single pass hydroformylation of butene-1 (Examples 3, 4, 5, 7, 12); details: Texanol/PEG-600 7:1
Experimental: Continuous hydroformylation of butene-1 a monosulfonated triphenylphosphine metal salt ligand was conducted in the following manner.
The non-aqueous hydroformylation was conducted in a glass reactor operating in a continuous single pass butene-1 hydroformylation mode. The reactor consisted of a three-ounce pressure bottle submersed in an oil bath with a lass front for viewing. About 20-mL of a freshly prepared rhodium catalytic precursor solution was charged to the reactor with a syringe, after purging the system with nitrogen. […] After closing the reactor, the system was again purged with nitrogen and the oil bath was heated to furnish the desired hydroformylation reaction temperature. The hydroformylation reaction was conducted at a total gas pressure of about 160 psig., the partial pressures of hydrogen, carbon monoxide, and butene-1 being given in Table 3 below, the remainder being nitrogen and aldehyde product.
The flows of the feed gases (carbon monoxide, hydrogen, butene-1 and nitrogen) were controlled individually with mass flow meters and the feed gases dispersed into the precursor solution via microporous stainless steel spargers. The unreacted portion of the feed gases was stripped out with the product C5 aldehydes and the outlet gas analyzed over about 12 days of continuous operation.

[6] = Batch hydroformylation of dodecene-1 (Examples 13, 14, 18, 19); details: heptanal, 100° C., 200 ppm Rh, 60 psia 2:1 H2:CO
[7] = day 1.0, 99 °C, CO 33, H2 53, C3H6 17 psia
[8] = day 2.0, 106 °C, CO 28, H2 54, C3H6 18 psia
[9] = day 3.0, […], CO 23, H2 55, C3H6 19 psia
[10] = day 4.0, […], CO 23, H2 55, C3H6 19 psia
[11] = day 4.9, 104 °C, CO 23, H2 55, C3H6 19 psia
[12] = day 5.8, 103 °C, CO 23, H2 55, C3H6 20 psia
[13] = day 6.7, 98 °C, CO 24, H2 56, C3H6 20 psia
[14] = day 1.0, 101 °C, CO 18, H2 70, C4H8 11 psia
[15] = day 1.8, 101 °C, CO 16, H2 62, C4H8 14 psia
[16] = day 5.0, 101 °C, CO 12, H2 66, C4H8 19 psia
[17] = day 5.9, 101 °C, CO 13, H2 66, C4H8 20 psia
[18] = day 6.9, 101 °C, CO 14, H2 62, C4H8 22 psia
[19] = day 7.0 (so in the source), […], CO 18, H2 62, C4H8 22 psia
[20] = day 7.9, 101 °C, CO 16, H2 55, C4H8 24 psia
[21] = day 9.0, […], CO 18, H2 60, C4H8 23 psia
[22] = day 11.0, […], CO 19, H2 63, C4H8 21 psia
[23] = day 11.7, […], CO 20, H2 63, C4H8 21 psia
[24] = day 12.6, 103 °C, CO 20, H2 63, C4H8 22 psia
[25] = CARBOWAX PEG-600, two liquid organic layers
[26] = TERGITOL 15-S-7/Carbowax TPEG-990 (3:1)
[27] = TERGITOL 24-L-75N/CARBOWAX TPEG-990 (4:1)

With O=S(=O)(O)c1cccc(P(c2ccccc2)c2ccccc2)c1 [TPPMS-Rb, monosulfonated triphenylphosphine rubidium salt] the “Linear/Branched Aldehyde Mole Ratio” value [1, 7] was 5.15, the “Rate (C4 aldehydes), daily average” value [1, 7] was 1.01 gmoles/L/Hr and the “Linear/Branched Aldehyde Mole Ratio” value [1, 8] was 6.19. For the same molecule, the “Rate (C4 aldehydes), daily average” value [1, 8] was 1.24 gmoles/L/Hr, the “Linear/Branched Aldehyde Mole Ratio” value [1, 9] was 5.86 and the “Rate (C4 aldehydes), daily average” value [1, 9] was 0.68 gmoles/L/Hr. For the same molecule, the “Linear/Branched Aldehyde Mole Ratio” value [1, 10] was 6.04, the “Rate (C4 aldehydes), daily average” value [1, 10] was 0.58 gmoles/L/Hr and the “Linear/Branched Aldehyde Mole Ratio” value [1, 11] was 6.12. The “Rate (C4 aldehydes), daily average” value [1, 11] was 0.58 gmoles/L/Hr, the “Linear/Branched Aldehyde Mole Ratio” value [1, 12] was 6.45 and the “Rate (C4 aldehydes), daily average” value [1, 12] was 0.58 gmoles/L/Hr. For the same molecule, the “Linear/Branched Aldehyde Mole Ratio” value [1, 13] was 6.60, the “Rate (C4 aldehydes), daily average” value [1, 13] was 0.41 gmoles/L/Hr and the “Metal Salt Solubility” value [2] was 25 Wt. %. For the same molecule, the “Linear/Branched Aldehyde Mole Ratio” value [3] was 5.6, the “Reaction Rate (C4 aldehydes)” value [3] was 0.70 Gmoles/L/Hr and the “Metal Salt Solubility” value ([4]; Butyraldehyde, 60 °C) was 1.4 Wt. %. The “Metal Salt Solubility” value ([4]; Heptanal, 80 °C) was 3.8 Wt. %, the “Metal Salt Solubility” value ([4]; Nonanal, 80 °C) was 0.9 Wt. % and the “Metal Salt Solubility” value ([4]; Propionaldehyde, 35 °C) was 6.6 Wt. %. For the same molecule, the “Metal Salt Solubility” value ([4]; Tridecanal, 80 °C) was 0.5 Wt. % and the “Metal Salt Solubility” value ([4]; Valeraldehyde, 80 °C) was 3.3 Wt. %.

For O=S(=O)(O)c1cccc(P(c2ccccc2)c2ccccc2)c1 [TPPMS-Ba, monosulfonated triphenylphosphine barium salt], the “Linear/Branched Aldehyde Mole Ratio” value [5, 14] was 6.91, the “Rate (C5 aldehydes), daily average” value [5, 14] was 2.07 gmoles/L/Hr and the “Linear/Branched Aldehyde Mole Ratio” value [5, 15] was 7.10. The “Rate (C5 aldehydes), daily average” value [5, 15] was 2.10 gmoles/L/Hr, the “Linear/Branched Aldehyde Mole Ratio” value [5, 16] was 7.12 and the “Rate (C5 aldehydes), daily average” value [5, 16] was 2.51 gmoles/L/Hr. The “Linear/Branched Aldehyde Mole Ratio” value [5, 17] was 7.03, the “Rate (C5 aldehydes), daily average” value [5, 17] was 2.52 gmoles/L/Hr and the “Linear/Branched Aldehyde Mole Ratio” value [5, 18] was 6.32. For the same molecule, the “Rate (C5 aldehydes), daily average” value [5, 18] was 2.71 gmoles/L/Hr, the “Linear/Branched Aldehyde Mole Ratio” value [5, 19] was 6.02 and the “Rate (C5 aldehydes), daily average” value [5, 19] was 2.60 gmoles/L/Hr. For the same molecule, the “Linear/Branched Aldehyde Mole Ratio” value [5, 20] was 6.16, the “Rate (C5 aldehydes), daily average” value [5, 20] was 2.71 gmoles/L/Hr and the “Linear/Branched Aldehyde Mole Ratio” value [5, 21] was 6.01. The “Rate (C5 aldehydes), daily average” value [5, 21] was 2.73 gmoles/L/Hr, the “Linear/Branched Aldehyde Mole Ratio” value [5, 22] was 6.20 and the “Rate (C5 aldehydes), daily average” value [5, 22] was 2.46 gmoles/L/Hr. The “Linear/Branched Aldehyde Mole Ratio” value [5, 23] was 6.14, the “Rate (C5 aldehydes), daily average” value [5, 23] was 2.37 gmoles/L/Hr and the “Linear/Branched Aldehyde Mole Ratio” value [5, 24] was 5.85. The “Rate (C5 aldehydes), daily average” value [5, 24] was 2.30 gmoles/L/Hr, the “Metal Salt Solubility” value [2] was 33 Wt. % and the “Linear/Branched Aldehyde Mole Ratio” value [3] was 4.1. The “Reaction Rate (C4 aldehydes)” value [3] was 1.43 Gmoles/L/Hr, the “Linear/Branched Aldehyde Mole Ratio” value [6, 25] was 10.0 and the “Reaction Rate” value [6, 25] was 1.22 G moles/L/hr. The “Linear/Branched Aldehyde Mole Ratio” value [6, 26] was 9.4, the “Reaction Rate” value [6, 26] was 0.45 G moles/L/hr and the “Linear/Branched Aldehyde Mole Ratio” value [6, 27] was 10.9. For the same molecule, the “Reaction Rate” value [6, 27] was 0.76 G moles/L/hr, the “Metal Salt Solubility” value ([4]; Butyraldehyde, 60 °C) was 0.6 Wt. % and the “Metal Salt Solubility” value ([4]; Heptanal, 80 °C) was 0.2 Wt. %. For the same molecule, the “Metal Salt Solubility” value ([4]; Nonanal, 80 °C) was 0.2 Wt. %, the “Metal Salt Solubility” value ([4]; Propionaldehyde, 35 °C) was 0.5 Wt. % and the “Metal Salt Solubility” value ([4]; Tridecanal, 80 °C) was 0.3 Wt. %. The “Metal Salt Solubility” value ([4]; Valeraldehyde, 80 °C) was 0.1 Wt. %.
